From ChEMBL document CHEMBL1201862, “PubChem BioAssay data set” (2004)
Activity calls are given as the source filed them.

How the values were obtained:
[1] = Luminescence Cell-Based Dose Response HTS to Identify Inhibitors of 5'UTR Stem-Loop Driven Prion Protein mRNA Translation in H4 Neuroglioblastoma Cells. [Related pubchem assays: 1827 (Project Summary), 1813 (Primary HTS)]; assay type: functional
[2] = inhibitors of firefly luciferase expression or activity, dose response, H4 neuroglioma cells, luminescence (AID 1990); assay type: functional, cell-based
[3] = inhibitors of SNCA 5'UTR-driven reporter translation, confirmation, H4 neuroglioma cells, luminescence (AID 1988); assay type: functional, cell-based
Protein RecA = biological target: T1, Protein RecA (Mycobacterium tuberculosis, UniProt P9WHJ3); test: Fluorescence Cell-Free Homogeneous Dose Retest to Identify Inhibitors of RecA-Intein Splicing Activity. [Related pubchem assays (depositor defined):AID2097, AID2223, AID489010, AID492950]; assay type: functional
T1 sequence (P9WHJ3 whole entry): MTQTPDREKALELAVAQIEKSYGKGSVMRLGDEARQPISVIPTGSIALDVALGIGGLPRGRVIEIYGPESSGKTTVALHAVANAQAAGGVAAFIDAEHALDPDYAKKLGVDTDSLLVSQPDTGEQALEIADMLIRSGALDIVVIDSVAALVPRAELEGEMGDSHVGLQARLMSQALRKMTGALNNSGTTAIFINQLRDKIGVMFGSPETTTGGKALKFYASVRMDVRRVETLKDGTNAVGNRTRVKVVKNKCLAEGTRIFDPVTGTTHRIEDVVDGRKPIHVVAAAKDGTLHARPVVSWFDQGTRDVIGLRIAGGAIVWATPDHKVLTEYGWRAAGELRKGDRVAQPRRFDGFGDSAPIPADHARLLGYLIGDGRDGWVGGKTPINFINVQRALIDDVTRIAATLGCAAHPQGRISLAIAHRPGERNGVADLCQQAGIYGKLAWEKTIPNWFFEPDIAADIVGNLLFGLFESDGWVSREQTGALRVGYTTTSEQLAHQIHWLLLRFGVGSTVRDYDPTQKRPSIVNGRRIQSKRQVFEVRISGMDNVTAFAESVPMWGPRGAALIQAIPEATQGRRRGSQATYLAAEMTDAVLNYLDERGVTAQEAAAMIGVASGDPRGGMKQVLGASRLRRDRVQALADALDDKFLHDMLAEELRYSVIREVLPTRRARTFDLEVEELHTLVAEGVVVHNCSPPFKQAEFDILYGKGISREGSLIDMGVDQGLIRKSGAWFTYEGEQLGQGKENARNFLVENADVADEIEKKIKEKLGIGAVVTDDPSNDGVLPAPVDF

[4] = biological target: T2, Replicative DNA helicase DnaB (Mycobacterium tuberculosis, UniProt P9WMR3); test: DnaB intein splicing inhibitors, dose response, biochemical, cell-free fluorescence (AID 449749); assay type: functional
T2 sequence (P9WMR3 whole entry): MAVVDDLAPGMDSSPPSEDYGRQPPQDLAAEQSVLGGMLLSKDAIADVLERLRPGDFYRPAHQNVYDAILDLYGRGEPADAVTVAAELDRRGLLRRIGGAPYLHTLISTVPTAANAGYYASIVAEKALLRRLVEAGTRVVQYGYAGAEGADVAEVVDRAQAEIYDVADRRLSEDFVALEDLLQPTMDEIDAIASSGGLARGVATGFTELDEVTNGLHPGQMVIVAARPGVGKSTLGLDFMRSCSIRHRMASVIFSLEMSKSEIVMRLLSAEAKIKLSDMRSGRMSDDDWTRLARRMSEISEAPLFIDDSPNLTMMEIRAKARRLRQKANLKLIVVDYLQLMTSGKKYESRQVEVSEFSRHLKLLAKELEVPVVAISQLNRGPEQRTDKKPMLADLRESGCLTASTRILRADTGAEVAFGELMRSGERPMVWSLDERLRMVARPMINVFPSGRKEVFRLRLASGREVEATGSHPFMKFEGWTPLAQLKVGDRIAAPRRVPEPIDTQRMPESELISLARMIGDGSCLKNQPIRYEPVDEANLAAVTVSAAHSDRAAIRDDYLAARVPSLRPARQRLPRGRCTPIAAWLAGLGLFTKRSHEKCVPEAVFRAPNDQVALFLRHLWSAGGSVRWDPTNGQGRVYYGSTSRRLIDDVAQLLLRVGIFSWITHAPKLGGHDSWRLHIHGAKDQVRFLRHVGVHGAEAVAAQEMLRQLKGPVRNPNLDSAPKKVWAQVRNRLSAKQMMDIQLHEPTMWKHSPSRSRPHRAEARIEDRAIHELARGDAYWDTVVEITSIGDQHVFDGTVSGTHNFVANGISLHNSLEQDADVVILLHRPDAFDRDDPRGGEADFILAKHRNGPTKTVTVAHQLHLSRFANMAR

Cytochrome P450 2D6 = Cytochrome P450 2D6 (Homo sapiens, UniProt P10635);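 also: CYP2D6 member of a cytochrome P450 panel assay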
Cytochrome P450 2C9 = Cytochrome P450 2C9 (Homo sapiens, UniProt P11712)
[5] = Luminescence Cell-Based Dose Response HTS to Identify Activators of Luciferase Translation or Activity in H4 […] Cells. [Related pubchem assays: 1829 (Project Summary), 1814 (Primary HTS)]; assay type: functional
[6] = biological target: T3, Rac GTPase-activating protein 1 (Homo sapiens, UniProt Q9H0H5); test: MgcRacGAP GTPase-activating activity inhibitors, confirmation, biochemical, ADP Hunter fluorescence, primary and confirmatory (AID 624330); assay type: functional
T3 sequence (Q9H0H5 whole entry): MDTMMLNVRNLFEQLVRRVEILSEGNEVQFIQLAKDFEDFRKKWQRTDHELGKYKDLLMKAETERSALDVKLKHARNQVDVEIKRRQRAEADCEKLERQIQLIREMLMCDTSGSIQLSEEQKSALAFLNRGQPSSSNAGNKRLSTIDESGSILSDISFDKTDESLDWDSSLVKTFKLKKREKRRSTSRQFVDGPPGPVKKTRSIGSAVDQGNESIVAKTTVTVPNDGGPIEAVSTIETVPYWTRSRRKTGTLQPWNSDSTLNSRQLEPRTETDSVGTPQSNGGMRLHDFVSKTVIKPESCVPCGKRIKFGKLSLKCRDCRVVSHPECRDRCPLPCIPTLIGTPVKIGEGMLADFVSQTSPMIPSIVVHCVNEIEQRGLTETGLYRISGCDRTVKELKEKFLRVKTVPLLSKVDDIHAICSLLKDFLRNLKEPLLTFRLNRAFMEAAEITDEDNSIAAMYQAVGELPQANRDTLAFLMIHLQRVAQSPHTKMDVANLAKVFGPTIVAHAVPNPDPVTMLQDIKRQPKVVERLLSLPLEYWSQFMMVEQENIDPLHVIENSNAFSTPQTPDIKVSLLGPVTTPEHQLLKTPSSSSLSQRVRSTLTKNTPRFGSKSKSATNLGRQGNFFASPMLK

[7] = inhibitors of intracellular T. cruzi replication, confirmation, NIH3T3 host cells, beta-gal luminescence (AID 2044); assay type: functional, cell-based;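 also: intracellular parasites grown in NIH/3T3 mouse fibroblasts as host cells; luminescent beta-galactosidase reporter signal from transgenic T. cruzi replicating inside host cells; inhibitors lower the luminescence signal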
[8] = cytotoxicity toward NIH3T3 fibroblasts, dose response, counter-screen, cell-based, ATP luminescence, mouse fibroblasts (AID 2010); assay type: functional;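 also: cells exposed to compound for about 90 hours before reading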
Cytochrome P450 2C19 = Cytochrome P450 2C19 (Homo sapiens, UniProt P33261); test: Cytochrome panel assay with activity outcomes. Panel member name: p450-cyp2c19 Compounds with AC50 equal or less than 10 uM are considered active; assay type: functional; conditions: read-out: AC50
Cytochrome P450 1A2 = biological target: T4, Cytochrome P450 1A2 (Homo sapiens, UniProt P05177);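 also: PubChem cytochrome P450 panel assay, CYP1A2 panel member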
T4 sequence (P05177 whole entry): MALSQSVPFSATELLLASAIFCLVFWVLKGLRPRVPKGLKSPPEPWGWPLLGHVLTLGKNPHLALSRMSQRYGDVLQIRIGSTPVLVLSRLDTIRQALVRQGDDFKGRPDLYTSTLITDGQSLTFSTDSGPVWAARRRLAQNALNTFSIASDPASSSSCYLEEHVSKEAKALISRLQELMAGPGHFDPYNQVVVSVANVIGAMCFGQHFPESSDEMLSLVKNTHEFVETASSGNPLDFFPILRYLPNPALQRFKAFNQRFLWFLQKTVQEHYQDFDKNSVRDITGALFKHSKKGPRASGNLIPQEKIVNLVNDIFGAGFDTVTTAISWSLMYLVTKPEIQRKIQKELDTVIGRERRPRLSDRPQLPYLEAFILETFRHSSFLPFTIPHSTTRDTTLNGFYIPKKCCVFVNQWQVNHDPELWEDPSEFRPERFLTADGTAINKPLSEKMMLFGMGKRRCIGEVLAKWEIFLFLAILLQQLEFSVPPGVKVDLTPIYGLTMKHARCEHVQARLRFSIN

H4 = test: Luminescence Cell-Based Dose Response HTS to Identify Activators of 5'UTR Stem-Loop Driven Prion Protein mRNA Translation in H4 Neuroglioblastoma Cells. [Related pubchem assays: 1829 (Project Summary), 1814 (Primary HTS)]; assay type: functional; conditions: Homo sapiens

Sequence of Cytochrome P450 2D6 (P10635 whole entry): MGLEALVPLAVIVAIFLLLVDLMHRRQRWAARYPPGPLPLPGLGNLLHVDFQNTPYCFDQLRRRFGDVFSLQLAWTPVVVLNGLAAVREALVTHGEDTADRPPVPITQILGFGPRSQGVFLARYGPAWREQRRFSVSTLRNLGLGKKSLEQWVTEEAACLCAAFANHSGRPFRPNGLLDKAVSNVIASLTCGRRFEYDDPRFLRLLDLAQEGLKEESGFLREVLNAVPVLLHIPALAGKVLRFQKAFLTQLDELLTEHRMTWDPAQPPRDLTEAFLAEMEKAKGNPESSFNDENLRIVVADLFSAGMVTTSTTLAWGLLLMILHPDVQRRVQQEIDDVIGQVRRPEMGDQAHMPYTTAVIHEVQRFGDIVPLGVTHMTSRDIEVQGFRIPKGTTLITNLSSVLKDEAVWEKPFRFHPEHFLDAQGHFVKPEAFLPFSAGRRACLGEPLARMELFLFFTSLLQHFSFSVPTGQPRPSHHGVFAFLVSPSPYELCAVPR
Sequence of Cytochrome P450 2C9 (P11712 whole entry): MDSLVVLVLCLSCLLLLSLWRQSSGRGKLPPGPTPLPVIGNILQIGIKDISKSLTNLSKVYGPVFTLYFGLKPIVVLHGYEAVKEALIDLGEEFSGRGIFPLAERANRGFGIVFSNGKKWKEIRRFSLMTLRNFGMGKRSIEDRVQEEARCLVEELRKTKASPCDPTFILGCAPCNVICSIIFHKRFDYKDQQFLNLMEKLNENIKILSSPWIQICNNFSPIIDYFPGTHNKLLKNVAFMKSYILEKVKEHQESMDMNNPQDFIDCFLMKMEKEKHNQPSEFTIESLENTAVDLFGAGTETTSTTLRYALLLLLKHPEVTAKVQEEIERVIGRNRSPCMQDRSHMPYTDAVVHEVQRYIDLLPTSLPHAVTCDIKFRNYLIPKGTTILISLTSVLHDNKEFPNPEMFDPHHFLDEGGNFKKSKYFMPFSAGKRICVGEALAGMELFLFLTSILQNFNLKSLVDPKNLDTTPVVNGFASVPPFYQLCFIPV
Sequence of Cytochrome P450 2C19 (P33261 whole entry): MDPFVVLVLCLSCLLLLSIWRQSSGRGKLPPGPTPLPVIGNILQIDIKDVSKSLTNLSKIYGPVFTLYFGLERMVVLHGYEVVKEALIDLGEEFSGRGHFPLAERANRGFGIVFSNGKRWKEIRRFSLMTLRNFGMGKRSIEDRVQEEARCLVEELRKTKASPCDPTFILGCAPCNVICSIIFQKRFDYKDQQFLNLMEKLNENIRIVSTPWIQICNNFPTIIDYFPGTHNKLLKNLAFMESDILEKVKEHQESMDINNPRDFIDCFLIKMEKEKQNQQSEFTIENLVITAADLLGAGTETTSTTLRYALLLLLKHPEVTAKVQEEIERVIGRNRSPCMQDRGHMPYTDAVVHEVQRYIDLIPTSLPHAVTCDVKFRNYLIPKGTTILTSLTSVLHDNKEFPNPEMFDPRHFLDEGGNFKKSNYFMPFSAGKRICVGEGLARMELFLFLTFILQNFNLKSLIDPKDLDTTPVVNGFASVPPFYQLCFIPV

Row | Structure (SMILES) | EC50 [1] | EC50 [2] | EC50 [3] | other results
1 | CCCn1c(N2CCN(CC(=O)c3c(C)n(C)c4ccc(OC)cc34)CC2)nc2c1c(=O)[nH]c(=O)n2C | 13.5 µM (active) | 18.9 µM (active) | > 120 µM (not active) | 
2 | CN(C)CCSc1n[nH]c2nc3ccccc3c-2n1 |  |  |  | EC50 (Protein RecA): 2.79 µM (active); AC50 [4]: 7.37 µM (active)
3 | Cn1c(=O)[nH]c(=O)c2c1nc(Sc1ncccn1)n2CCCc1ccccc1 | 18.4 µM (active) | 12.3 µM (active) | 83.1 µM (active) | 
4 | CCCCc1nc2[nH]nc(N)c2c2c1CCCC2 | > 120 µM (not active) | 12.5 µM (active) | 12 µM (active) | 
5 | O=C(Nc1ccc(Br)cc1)c1ccc(F)c(S(=O)(=O)N2CCN(c3ccccn3)CC2)c1 | 11.5 µM (active) | > 120 µM (not active) | > 120 µM (not active) | 
6 | Cc1[nH]c2ccc(-c3nnc(S)n3Cc3ccccc3)cc2c1C | > 120 µM (not active) | > 120 µM (not active) | > 120 µM (not active) | 
7 | CCN(CC)CCn1cnc2c3c(OC)cccc3nc-2c1O | > 120 µM (not active) | > 120 µM (not active) | > 120 µM (not active) | 
8 | NC(=O)c1ccccc1-c1nc(-n2ccnc2)c2ccccc2n1 |  |  |  | AC50 (Cytochrome P450 2D6): 39.8 µM (inconclusive)
9 | CCOC(=O)c1cc(C)sc1NC(=O)CSC1=NCCS1 |  |  |  | EC50 (Protein RecA): 21.4 µM (active); AC50 [4]: 12 µM (active)
10 | COc1ccc(NC(=O)CN(C)C(=O)c2cccc(S(=O)(=O)N3CCCc4ccccc43)c2)cc1 | > 120 µM (not active) | > 120 µM (not active) | 72.5 µM (active) | 
11 | CCN(CC)CCN1C(=O)C(O)=C(C(C)=O)C1c1ccccc1[N+](=O)[O-] (stereo not given) |  |  |  | EC50 (Protein RecA): 3.71 µM (active); AC50 [4]: 10 µM (active)
12 | Cn1cnc([N+](=O)[O-])c1Oc1cccc2ccccc12 |  |  |  | EC50 (Protein RecA): 13.2 µM (active); AC50 [4]: 28.3 µM (active)
13 | CCOc1ccc(NC(=O)NCCN2CCN(c3cccc(C)c3C)CC2)cc1 | > 120 µM (not active) | > 120 µM (not active) | > 120 µM (not active) | 
14 | CCOc1ccc(S(=O)(=O)N2CCC(C(=O)NCc3ccco3)CC2)cc1C | > 120 µM (not active) | 17.5 µM (active) | 37.6 µM (active) | 
15 | Cc1c(Cl)cccc1N=C(S)N1CCN(S(=O)(=O)c2cccs2)CC1 | 13.1 µM (active) | > 120 µM (not active) | > 120 µM (not active) | 
16 | CCCCOP(=O)(OCCCC)C1(NS(=O)(=O)c2ccccc2)C=CC(=O)c2ccccc21 (stereo not given) |  |  |  | EC50 (Protein RecA): 1.82 µM (active); AC50 [4]: 4.8 µM (active)
17 | CC(C)C[C@H](NC(=O)c1nc[nH]c1C(=O)N[C@@H](CC(C)C)C(=O)OC(C)(C)C)C(=O)OC(C)(C)C | 13.6 µM (active) | 16.8 µM (active) | 8.87 µM (active) | 
18 | COc1cccc(C(=O)/C=C/c2ccc(SC)cc2)c1 |  |  |  | AC50 (Cytochrome P450 2D6): 14.1 µM (inconclusive); AC50 (Cytochrome P450 2C9): 10 µM (inconclusive)
19 | C[C@H]1CN(S(=O)(=O)c2cccc3cnccc23)CCN1 |  |  |  | AC50 (Cytochrome P450 2D6): 39.8 µM (inconclusive)
20 | COc1ccc(N2Cc3ccc(OC)c(OC)c3C2=O)cc1 |  |  |  | EC50 [5]: 0.379 µM (active)
21 | C=CCc1cc(Cl)ccc1OCCN(C)C |  |  |  | IC50 [6]: 157 µM (active); EC50 [7]: 559 nM (active); EC50 [8]: > 30 µM (not active)
22 | CCn1cc(-c2nnnn2-c2ccc(Cl)cc2)c(=O)c2ccccc21 |  |  |  | AC50 (Cytochrome P450 2D6): 11.2 µM (inconclusive)
23 | COCC(C)NCc1cccc([N+](=O)[O-])c1 (stereo not given) |  |  |  | AC50 (Cytochrome P450 2D6): 14.1 µM (inconclusive); AC50 (Cytochrome P450 2C19): 11.2 µM (inconclusive); AC50 (Cytochrome P450 2C9): 0.398 µM (inconclusive)
24 | O=C(Cn1c(C(F)(F)F)nc2ccccc21)c1ccccc1 |  |  |  | AC50 (Cytochrome P450 2D6): 15.8 µM (inconclusive); AC50 (Cytochrome P450 1A2): 25.1 µM (inconclusive)
25 | COc1cccc(/N=C2\C(Cl)=C(O)OC2OC(=O)c2ccco2)c1 (stereo not given) |  |  |  | EC50 (Protein RecA): 14.6 µM (active); AC50 [4]: 22.3 µM (active)
26 | COc1cc(-c2nc3ccccn3c2/N=C/c2ccccc2)ccc1O |  |  |  | AC50 (Cytochrome P450 2D6): 28.2 µM (inconclusive)
27 | Cc1ccc(O)c(/N=C/c2sc3ccccc3c2Cl)c1 |  |  |  | IC50 [6]: 39.2 µM (active)
28 | COc1cc(OC)cc(C(=O)Oc2ccc(/C=N/Nc3nc4ccccc4s3)cc2OC)c1 |  |  |  | EC50 [5]: 5.84 µM (active); EC50 (H4): 7.55 µM (active)
29 | CC(C)c1ccc(/C=N/NC(=O)c2nnn(-c3nonc3N)c2CSC2=NCCS2)cc1 |  |  |  | EC50 (Protein RecA): 8.86 µM (active); AC50 [4]: 9.47 µM (active)
